In ChEMBL document CHEMBL1201862, “PubChem BioAssay data set” (2004):
Active and inactive are the calls of the source.

Legend:
Fatty acid synthase [1] = molecular target: T1, Fatty acid synthase (Homo sapiens, UniProt P49327); test: inhibition of human FAS-TE enzyme activity – biochemical, kinetic fluorescence intensity, dose response (AID 624326); type: functional;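 also: rate of fluorescence rise from hydrolysis of a fluorogenic O-methyl fluorescein ester substrate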
[2] = molecular target: Heat shock protein HSP 90-alpha (Homo sapiens, UniProt P07900); type: functional, organism-based
Fatty acid synthase [3] = molecular target: T1, Fatty acid synthase; test: inhibition of human FAS-TE enzyme activity – biochemical, endpoint fluorescence intensity, uHTS hits, dose response (AID 624327); type: functional;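 also: fluorescence from hydrolysis of an O-methyl fluorescein acyl ester substrate by the enzyme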
Beta-galactosidase = Beta-galactosidase (Escherichia coli, UniProt Q8VNN2); test: detection-enzyme interference by beta-gal modulators – biochemical, E. coli enzyme, set 3, artefact control for CCR6 antagonist project, dose response (AID 504712); type: functional
Chain of Beta-galactosidase (Q8VNN2 whole entry): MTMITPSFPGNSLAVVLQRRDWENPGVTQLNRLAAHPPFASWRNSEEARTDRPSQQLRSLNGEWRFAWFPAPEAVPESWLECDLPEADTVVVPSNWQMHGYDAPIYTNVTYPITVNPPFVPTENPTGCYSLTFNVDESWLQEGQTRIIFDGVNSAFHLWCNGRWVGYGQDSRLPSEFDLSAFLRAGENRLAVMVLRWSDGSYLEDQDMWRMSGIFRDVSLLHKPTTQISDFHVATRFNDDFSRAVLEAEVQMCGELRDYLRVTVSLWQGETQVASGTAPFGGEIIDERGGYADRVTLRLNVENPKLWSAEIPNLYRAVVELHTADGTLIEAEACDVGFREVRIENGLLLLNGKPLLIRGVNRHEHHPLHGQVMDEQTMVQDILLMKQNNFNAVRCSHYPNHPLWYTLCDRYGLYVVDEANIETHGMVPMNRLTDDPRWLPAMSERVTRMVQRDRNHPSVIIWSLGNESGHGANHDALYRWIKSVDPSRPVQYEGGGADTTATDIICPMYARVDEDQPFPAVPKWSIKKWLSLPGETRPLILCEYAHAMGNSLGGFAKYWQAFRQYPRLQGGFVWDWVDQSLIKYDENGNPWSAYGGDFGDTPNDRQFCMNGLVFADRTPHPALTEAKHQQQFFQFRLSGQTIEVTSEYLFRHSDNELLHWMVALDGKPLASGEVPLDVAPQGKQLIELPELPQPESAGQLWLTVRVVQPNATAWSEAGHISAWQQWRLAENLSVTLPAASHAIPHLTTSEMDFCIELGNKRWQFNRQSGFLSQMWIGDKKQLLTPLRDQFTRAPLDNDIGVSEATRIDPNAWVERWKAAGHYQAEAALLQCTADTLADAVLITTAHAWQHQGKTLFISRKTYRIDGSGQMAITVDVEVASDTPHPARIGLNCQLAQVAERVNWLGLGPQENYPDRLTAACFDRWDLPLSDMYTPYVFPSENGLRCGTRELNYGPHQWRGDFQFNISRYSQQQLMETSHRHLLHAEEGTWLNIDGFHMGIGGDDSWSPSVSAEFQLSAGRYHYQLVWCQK

[4] = HEK-293T cell viability reduction – luminescence, B-cell screen hits, cytotoxicity control for BCR NF-kB inhibitor project, dose response (AID 489021); type: functional, cell-based;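 also: HEK-293T cells carrying an NF-kB luciferase reporter; cells exposed to compound for about 14 hours before viability readout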
[5] = molecular target: Melanin-concentrating hormone receptor 1 (Homo sapiens, UniProt Q99705); test: Fluorescence-based counterscreen for antagonists of the G-protein coupled receptor 7 (GPR7): cell-based high throughput dose response assay to identify antagonists of the melanin-concentrating hormone receptor 1 (MCHR1).; type: functional
Chain of Melanin-concentrating hormone receptor 1 (Q99705 whole entry): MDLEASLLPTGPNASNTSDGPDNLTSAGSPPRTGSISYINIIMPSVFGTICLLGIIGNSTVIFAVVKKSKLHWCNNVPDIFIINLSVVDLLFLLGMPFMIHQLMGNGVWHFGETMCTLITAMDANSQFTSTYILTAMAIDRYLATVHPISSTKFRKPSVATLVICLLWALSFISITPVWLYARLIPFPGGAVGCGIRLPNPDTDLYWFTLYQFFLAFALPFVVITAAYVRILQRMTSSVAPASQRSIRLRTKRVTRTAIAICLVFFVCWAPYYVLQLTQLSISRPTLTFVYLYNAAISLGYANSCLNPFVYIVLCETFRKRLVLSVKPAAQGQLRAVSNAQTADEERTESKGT

[6] = molecular target: T2, Neuropeptides B/W receptor type 1 (Homo sapiens, UniProt P48145); test: Fluorescence-based dose response cell-based high throughput screening assay to identify antagonists of the G-protein coupled receptor 7 (GPR7). [Related pubchem assays: 1952 (Screening assay (GPR7 antagonists).), 1880 (Summary AID.)]; type: functional
T2 sequence (P48145 whole entry): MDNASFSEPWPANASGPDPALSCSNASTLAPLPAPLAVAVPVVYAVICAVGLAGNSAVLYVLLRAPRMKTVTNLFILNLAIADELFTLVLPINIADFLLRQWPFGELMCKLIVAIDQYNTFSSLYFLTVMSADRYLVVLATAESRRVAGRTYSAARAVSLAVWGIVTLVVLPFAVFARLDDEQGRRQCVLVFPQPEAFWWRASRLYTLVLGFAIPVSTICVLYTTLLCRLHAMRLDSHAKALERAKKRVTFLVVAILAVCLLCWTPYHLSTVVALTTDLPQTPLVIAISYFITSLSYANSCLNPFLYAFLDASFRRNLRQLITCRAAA

BJ = test: growth inhibition of engineered Ras-driven BJ cells – cell-based, alamar blue fluorescence, cherrypicked samples, dose response (AID 2631); type: functional; conditions: Homo sapiens;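 also: confirmatory dose-response assay in RAS-dependent BJ fibroblasts engineered with TERT, LT and ST, with cytotoxicity read by fluorescence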
Aspartyl aminopeptidase = molecular target: T3, Aspartyl aminopeptidase (Plasmodium falciparum 3D7, UniProt Q8I2J3)
T3 sequence (Q8I2J3 whole entry): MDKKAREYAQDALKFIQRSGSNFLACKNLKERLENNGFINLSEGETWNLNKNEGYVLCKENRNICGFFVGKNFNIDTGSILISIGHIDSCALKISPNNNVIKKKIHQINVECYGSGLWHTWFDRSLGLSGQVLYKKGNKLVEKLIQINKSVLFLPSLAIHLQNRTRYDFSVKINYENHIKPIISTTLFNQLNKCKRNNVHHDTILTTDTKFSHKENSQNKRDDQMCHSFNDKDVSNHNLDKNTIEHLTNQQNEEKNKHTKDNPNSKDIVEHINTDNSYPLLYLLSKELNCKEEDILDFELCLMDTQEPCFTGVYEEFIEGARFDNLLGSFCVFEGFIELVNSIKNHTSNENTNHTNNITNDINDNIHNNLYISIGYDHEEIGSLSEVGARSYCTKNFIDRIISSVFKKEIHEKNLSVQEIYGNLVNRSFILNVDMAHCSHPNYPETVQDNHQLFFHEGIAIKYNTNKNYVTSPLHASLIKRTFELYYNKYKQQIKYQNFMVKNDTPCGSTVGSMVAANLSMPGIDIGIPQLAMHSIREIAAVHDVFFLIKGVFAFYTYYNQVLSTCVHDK

[7] = molecular target: Induced myeloid leukemia cell differentiation protein Mcl-1 (Homo sapiens, UniProt Q07820); type: functional
Procathepsin L = Procathepsin L (Homo sapiens, UniProt P07711)
Chain of Procathepsin L (P07711 whole entry): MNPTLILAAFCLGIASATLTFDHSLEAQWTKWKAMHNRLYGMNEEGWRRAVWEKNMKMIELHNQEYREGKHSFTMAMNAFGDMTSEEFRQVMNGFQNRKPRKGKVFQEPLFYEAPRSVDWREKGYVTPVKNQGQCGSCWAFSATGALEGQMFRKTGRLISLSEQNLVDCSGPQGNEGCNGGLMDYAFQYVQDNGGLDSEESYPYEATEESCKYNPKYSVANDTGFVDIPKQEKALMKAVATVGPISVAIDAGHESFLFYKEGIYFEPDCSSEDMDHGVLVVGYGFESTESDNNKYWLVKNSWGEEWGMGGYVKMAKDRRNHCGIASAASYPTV

HeLa = test: viability loss in HeLa cells – cell-based, 24 h, cherry-picked samples, cytotoxicity control, dose response (AID 504726); type: functional; conditions: Homo sapiens;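 also: potency for cytotoxicity as loss of luminescence signal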
[8] = molecular target: G-protein coupled receptor 55 (Homo sapiens, UniProt Q9Y2T6); test: inhibition of LPI-stimulated GPR55 beta-arrestin translocation – imaging, U2OS, beta-arrestin-GFP, LPI agonist, primary screen (AID 2013); type: functional;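 also: antagonist potency measured as reduced agonist-driven arrestin aggregation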
Chain of G-protein coupled receptor 55 (Q9Y2T6 whole entry): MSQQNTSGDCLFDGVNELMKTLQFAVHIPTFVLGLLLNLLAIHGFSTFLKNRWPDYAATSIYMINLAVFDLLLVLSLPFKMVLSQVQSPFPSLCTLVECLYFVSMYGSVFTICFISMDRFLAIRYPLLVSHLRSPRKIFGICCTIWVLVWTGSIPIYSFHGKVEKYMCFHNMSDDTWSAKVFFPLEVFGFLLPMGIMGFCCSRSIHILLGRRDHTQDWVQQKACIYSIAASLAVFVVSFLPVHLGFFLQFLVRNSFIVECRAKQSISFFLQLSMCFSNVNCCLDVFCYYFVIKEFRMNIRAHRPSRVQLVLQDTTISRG

[9] = viability of PTEN-deleted HCT116 cells – cell-based, HCT116 PTEN knockout, dose response (AID 1047); type: functional;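 also: HCT116 colon tumor cells with PTEN knocked out; cells exposed to compound for 60 hours before readout; potency for loss of cell viability measured by luminescence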
Large T antigen = Large T antigen (Simian virus 40, UniProt P03070); type: functional, Betapolyomavirus macacae;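 also: Confirmatory-stage PubChem screen for compounds that inhibit SV40 T antigen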
[10] = viability of HCT116 lacking mutant beta-catenin – cell-based, human colon tumor, dose response (AID 1045); type: functional;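 also: HCT116 colon tumor cells with beta catenin knocked out; cells exposed to compound for 60 hours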
H9c2 = test: cells; type: functional, cell-based; conditions: Rattus norvegicus, H9c2, Myocardium;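 also: confirmatory concentration-response retest of ultra-high-throughput screening hits for modulation of myocardial damage; cell death induced by hydrogen peroxide oxidative stress; compound pretreatment for 60 min then peroxide exposure for 2 h; potency is for protecting the cells against peroxide damage rather than for killing them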
[11] = molecular target: T4, Nucleotide-binding oligomerization domain-containing protein 1 (Homo sapiens, UniProt Q9Y239); test: blockers of NOD1 pathway activity – revised, SAR follow-up (AID 2333); type: functional
T4 sequence (Q9Y239 whole entry): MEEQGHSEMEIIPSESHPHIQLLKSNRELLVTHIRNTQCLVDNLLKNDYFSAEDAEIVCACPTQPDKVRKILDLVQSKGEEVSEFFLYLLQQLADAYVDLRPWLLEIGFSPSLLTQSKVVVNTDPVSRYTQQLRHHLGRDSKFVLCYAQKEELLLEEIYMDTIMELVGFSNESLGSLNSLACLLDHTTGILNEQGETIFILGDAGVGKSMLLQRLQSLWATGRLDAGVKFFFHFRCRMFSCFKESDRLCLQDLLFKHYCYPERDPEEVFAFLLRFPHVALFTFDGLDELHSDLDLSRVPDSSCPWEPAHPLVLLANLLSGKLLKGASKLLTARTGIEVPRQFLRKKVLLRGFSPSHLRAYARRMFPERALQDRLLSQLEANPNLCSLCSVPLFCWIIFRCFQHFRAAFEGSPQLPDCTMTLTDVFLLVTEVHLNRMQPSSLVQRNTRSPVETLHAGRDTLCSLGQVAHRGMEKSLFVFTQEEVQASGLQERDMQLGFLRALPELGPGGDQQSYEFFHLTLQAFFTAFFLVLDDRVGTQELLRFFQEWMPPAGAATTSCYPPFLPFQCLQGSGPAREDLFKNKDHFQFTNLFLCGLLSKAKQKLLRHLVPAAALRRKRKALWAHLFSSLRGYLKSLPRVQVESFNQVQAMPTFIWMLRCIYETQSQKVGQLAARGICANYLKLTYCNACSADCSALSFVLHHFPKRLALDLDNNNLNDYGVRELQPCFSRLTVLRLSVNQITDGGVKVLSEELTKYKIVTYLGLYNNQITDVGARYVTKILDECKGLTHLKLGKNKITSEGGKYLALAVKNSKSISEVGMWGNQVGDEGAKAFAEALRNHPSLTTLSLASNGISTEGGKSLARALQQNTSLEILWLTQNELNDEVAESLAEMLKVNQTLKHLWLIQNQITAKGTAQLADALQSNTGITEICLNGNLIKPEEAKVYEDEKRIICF

Interleukin-8 [12] = molecular target: T5, Interleukin-8 (Homo sapiens, UniProt P10145); test: SAR analysis of GM-Tri-DAP induced IL-8 secretion in MCF-7/NOD1 cells - Set 2. [Related pubchem assays (depositor defined):AID1575, AID1578, AID2333]; type: functional, cell-based
T5 sequence (P10145 whole entry): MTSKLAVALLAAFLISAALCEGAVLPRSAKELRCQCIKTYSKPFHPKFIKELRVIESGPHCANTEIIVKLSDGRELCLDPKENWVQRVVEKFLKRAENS

HEK293 = test: cells; conditions: Homo sapiens;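 also: cells exposed to compound for 14 hours overnight before viability readout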
Tumor necrosis factor = Tumor necrosis factor (Homo sapiens, UniProt P01375); test: analog potency on TNFa NF-kB signaling – cell-based, revised, SAR follow-up (AID 2337); type: functional
Interleukin-8 [13] = molecular target: T5, Interleukin-8; test: SAR analysis of Tumor necrosis factor alpha (TNF-alpha) induced IL-8 secretion in MCF-7/NOD1 cells - Set 2. [Related pubchem assays (depositor defined):AID1575, AID2250, AID2260]; type: functional, cell-based
Hexokinase = molecular target: T6, Hexokinase (Trypanosoma brucei, UniProt Q38C41); test: Confirmation assay for inhibitors of Trypanosoma brucei hexokinase 1-Analogue-first series. [Related pubchem assays (depositor defined):AID1430, AID1632, AID2516, AID2560, AID2579, AID2600, AID449725, AID492951]; type: functional
T6 sequence (Q38C41 whole entry): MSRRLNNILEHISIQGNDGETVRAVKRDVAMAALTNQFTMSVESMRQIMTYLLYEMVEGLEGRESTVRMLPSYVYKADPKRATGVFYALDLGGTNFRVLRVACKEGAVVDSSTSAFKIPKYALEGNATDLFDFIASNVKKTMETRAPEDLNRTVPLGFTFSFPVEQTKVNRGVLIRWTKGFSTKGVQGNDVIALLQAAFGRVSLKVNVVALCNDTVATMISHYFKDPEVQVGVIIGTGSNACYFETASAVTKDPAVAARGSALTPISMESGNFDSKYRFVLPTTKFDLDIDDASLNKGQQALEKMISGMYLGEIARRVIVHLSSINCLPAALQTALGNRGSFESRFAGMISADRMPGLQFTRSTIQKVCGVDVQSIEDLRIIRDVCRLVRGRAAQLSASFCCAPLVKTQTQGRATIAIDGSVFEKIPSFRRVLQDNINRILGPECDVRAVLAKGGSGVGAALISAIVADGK

[14] = tested on: Streptococcus sp. 'group A'; test: Streptococcus pyogenes SK(-)GAS viability under kanamycin – luminescence, BacTiterGlo, confirmation, counter-screen for streptokinase expression inhibitor project, dose response (AID 1900); type: functional, organism-based
Streptokinase A = molecular target: T7, Streptokinase A (Streptococcus pyogenes serotype M1, UniProt P10520); test: viability-normalized secreted streptokinase activity reduction – plasminogen activation absorbance, OD405, dose response (AID 1914); type: functional, Streptococcus pyogenes M1 GAS;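 also: secreted streptokinase activity via plasminogen activation per viability signal from cell pellet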
T7 sequence (P10520 whole entry): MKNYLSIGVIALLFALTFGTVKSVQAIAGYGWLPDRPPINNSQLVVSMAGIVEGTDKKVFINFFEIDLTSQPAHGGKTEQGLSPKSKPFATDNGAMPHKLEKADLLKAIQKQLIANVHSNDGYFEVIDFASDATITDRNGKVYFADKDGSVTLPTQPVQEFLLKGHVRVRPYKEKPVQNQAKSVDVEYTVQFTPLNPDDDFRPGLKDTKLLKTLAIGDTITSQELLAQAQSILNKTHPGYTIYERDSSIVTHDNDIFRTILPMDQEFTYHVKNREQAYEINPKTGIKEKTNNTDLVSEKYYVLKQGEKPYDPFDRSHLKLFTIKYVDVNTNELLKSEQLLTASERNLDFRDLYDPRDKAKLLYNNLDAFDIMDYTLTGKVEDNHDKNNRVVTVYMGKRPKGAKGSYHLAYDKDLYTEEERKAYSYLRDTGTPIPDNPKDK

Streptococcus = test: GAS UMAA2166 growth inhibition – luminescence, BacTiterGlo, counter-screen for streptokinase expression inhibitor project, dose response (AID 1915); type: functional, organism-based;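 also: potency for reduction of bacterial viability or growth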
[15] = molecular target: Alkaline phosphatase, placental type (Homo sapiens, UniProt P05187); test: human placental alkaline phosphatase inhibition – biochemical, luminescence, confirmation (AID 1512); type: functional
Chain of Alkaline phosphatase, placental type (P05187 whole entry): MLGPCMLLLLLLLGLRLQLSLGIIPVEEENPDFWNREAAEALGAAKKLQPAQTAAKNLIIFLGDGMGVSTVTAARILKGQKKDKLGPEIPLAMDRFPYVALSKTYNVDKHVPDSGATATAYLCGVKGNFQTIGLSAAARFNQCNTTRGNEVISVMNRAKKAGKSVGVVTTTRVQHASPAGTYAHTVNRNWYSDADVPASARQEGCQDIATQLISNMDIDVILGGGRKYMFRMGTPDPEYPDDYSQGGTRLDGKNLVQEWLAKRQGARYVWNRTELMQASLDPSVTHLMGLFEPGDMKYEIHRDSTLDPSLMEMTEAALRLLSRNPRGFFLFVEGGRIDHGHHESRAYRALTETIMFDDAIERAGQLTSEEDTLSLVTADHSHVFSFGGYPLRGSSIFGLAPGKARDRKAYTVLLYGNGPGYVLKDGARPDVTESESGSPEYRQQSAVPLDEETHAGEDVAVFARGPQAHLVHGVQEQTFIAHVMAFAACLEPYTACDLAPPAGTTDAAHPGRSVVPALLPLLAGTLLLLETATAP

[16] = molecular target: Glyceraldehyde-3-phosphate dehydrogenase (Homo sapiens, UniProt P04406)

T1 sequence (P49327 whole entry): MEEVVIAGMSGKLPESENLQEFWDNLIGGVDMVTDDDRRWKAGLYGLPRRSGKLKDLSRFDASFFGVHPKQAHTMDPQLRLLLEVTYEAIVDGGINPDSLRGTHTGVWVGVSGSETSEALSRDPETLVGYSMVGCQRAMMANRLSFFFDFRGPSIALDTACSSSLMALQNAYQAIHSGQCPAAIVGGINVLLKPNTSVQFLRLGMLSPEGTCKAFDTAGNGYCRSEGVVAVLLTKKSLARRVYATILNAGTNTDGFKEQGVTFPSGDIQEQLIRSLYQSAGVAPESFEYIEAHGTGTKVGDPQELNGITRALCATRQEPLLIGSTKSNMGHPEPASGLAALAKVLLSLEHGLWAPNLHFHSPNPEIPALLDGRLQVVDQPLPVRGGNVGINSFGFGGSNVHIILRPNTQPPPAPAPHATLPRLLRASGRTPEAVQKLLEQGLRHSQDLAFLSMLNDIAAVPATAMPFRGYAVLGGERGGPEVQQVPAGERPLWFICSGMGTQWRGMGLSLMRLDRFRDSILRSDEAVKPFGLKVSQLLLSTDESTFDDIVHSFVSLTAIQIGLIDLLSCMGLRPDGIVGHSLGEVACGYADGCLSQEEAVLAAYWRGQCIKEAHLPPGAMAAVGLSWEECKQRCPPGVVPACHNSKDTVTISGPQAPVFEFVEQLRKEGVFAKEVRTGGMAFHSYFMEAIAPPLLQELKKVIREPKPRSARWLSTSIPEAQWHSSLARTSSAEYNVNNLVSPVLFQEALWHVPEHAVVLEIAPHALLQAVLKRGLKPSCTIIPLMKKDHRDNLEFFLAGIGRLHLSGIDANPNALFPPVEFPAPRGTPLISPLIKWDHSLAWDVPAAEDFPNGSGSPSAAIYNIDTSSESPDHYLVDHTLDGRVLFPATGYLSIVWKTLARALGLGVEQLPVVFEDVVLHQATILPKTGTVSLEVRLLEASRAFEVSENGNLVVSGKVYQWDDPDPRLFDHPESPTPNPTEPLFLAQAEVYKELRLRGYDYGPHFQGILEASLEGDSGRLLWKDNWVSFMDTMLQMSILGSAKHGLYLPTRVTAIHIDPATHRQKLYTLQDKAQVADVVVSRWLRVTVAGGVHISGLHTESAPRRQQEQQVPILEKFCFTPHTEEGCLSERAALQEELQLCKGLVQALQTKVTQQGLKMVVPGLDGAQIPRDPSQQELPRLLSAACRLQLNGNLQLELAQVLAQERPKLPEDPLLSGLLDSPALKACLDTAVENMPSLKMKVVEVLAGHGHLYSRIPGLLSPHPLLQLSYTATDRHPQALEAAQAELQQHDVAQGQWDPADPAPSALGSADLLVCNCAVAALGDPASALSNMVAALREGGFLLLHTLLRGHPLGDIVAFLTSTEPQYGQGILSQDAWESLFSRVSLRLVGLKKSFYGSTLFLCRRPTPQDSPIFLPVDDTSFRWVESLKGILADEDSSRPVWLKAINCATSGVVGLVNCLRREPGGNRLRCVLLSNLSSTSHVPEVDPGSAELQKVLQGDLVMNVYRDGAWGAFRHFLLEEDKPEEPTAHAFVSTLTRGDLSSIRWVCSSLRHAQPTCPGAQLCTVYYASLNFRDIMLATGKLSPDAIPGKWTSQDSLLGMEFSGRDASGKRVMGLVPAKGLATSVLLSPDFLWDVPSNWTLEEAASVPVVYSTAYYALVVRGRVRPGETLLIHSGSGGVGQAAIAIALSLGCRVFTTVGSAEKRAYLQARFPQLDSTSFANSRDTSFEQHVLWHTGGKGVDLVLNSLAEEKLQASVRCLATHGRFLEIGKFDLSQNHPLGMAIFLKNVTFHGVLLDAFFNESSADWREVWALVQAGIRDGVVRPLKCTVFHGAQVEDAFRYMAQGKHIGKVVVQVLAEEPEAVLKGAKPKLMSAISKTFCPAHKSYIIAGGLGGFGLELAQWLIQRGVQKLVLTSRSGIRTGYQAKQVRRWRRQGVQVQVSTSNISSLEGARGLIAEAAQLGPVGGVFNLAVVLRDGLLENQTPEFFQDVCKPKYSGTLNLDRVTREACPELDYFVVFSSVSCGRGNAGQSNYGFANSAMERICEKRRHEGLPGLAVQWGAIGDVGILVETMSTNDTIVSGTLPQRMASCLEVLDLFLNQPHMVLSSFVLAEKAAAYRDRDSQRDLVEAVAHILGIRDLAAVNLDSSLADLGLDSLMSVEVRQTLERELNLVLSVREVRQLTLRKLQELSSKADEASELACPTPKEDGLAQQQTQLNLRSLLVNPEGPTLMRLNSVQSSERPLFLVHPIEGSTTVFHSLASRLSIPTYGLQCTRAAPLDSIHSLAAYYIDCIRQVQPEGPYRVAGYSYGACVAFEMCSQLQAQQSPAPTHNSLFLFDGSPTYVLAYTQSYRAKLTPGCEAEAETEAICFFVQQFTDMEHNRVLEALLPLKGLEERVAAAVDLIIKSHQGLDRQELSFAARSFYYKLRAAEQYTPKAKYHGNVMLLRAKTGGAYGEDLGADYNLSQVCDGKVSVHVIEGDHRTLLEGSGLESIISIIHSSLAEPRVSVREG

N#C/C(=C\c1cccc([N+](=O)[O-])c1)C(=O)NCc1ccc(Cl)cc1
IC50 (Fatty acid synthase [1]): 4.11 µM (active)
AC50 [2]: 1.93 µM (active)
IC50 (Fatty acid synthase [3]): 4.48 µM (active)
IC50 (Beta-galactosidase): > 66.6 µM (inactive)

COc1ccc(N(CC(=O)N2CCN(c3ccc(Cl)cc3)CC2)S(=O)(=O)c2c(C)n[nH]c2C)cc1
IC50 [4]: > 80 µM (inactive)

CCOC(=O)COc1c(Cl)cc(C2NC(S)=NC(c3ccccc3)=C2C(C)=O)cc1OC (centres undefined)
IC50 [5]: > 43.8 µM (not active)
IC50 [6]: > 43.8 µM (not active)

COc1ccc(C2=CC(=O)C=CC2=O)cc1
EC50 (BJ): > 133 µM (inactive)
IC50 (Aspartyl aminopeptidase): 6.85 µM (active)
IC50 [7]: 5.43 µM (active)
IC50 (Procathepsin L): > 59.6 µM (not active)

Cc1noc(C)c1CSCC(=O)Nc1nc2c(F)cc(F)cc2s1
AC50 (HeLa): > 350 µM (inactive)

O=C(c1cccc(Oc2ccc([N+](=O)[O-])cc2Cl)c1)N1CCCCC1
IC50 [8]: 5.09 µM (active)

Cc1nn(-c2nc3ccccc3[nH]2)c(N)c1-c1ccccc1
IC50 (Beta-galactosidase): > 66.6 µM (inactive)

Cc1csc(NC(=O)NC2(C(F)(F)F)Oc3ccccc3O2)n1
IC50 (Aspartyl aminopeptidase): 2.02 µM (active)
EC50 [9]: 24.8 µM (active)
IC50 (Large T antigen): 13.3 µM (active)
IC50 (Procathepsin L): > 59.6 µM (not active)
EC50 [10]: 21.9 µM (active)

COc1cc(NC(=O)c2ccco2)c(OC)cc1NC(=O)c1cc(OC)c(OC)c(OC)c1
IC50 [4]: 41.3 µM (inactive)
IC50 (H9c2): 14.3 µM (active)

Cc1ccc(S(=O)(=O)n2c(=S)[nH]c3cc(C)ccc32)cc1
IC50 [11]: > 20 µM (inactive)
IC50 (Interleukin-8 [12]): > 25 µM (inactive)
IC50 (HEK293): > 20 µM (inactive)
IC50 (Tumor necrosis factor): > 20 µM (inactive)
IC50 (Interleukin-8 [13]): > 25 µM (inactive)

Fc1ccc(CSc2ncnc3scc(-c4ccccc4)c23)cc1
IC50 [8]: 2.16 µM (active)

CCC(C)(C(=O)NC1CCCCC1)N(Cc1ccco1)C(=O)c1ccc2c(c1)OCO2 (centres undefined)
IC50 [5]: > 43.8 µM (not active)
IC50 [6]: > 43.8 µM (not active)

Cc1csc(NC(=O)/C=C/c2ccc3c(c2)OCO3)n1
IC50 [4]: > 80 µM (inactive)

O=C(Cn1sc2ccccc2c1=O)Nc1cccc(Br)c1
IC50 (Hexokinase): > 25 µM (inactive)

O=C(Cn1sc2ccccc2c1=O)Nc1ccccc1Cl
IC50 (Hexokinase): 4.16 µM (active)

COc1ccc(NC(=O)Nc2ccccc2C(=O)O)cc1
IC50 (Hexokinase): > 25 µM (inactive)

Cc1cccc(/C=N/NC(=O)c2ccccc2OCc2cccc(Br)c2)n1
EC50 [14]: 11 µM (active)
EC50 (Streptokinase A): 16.1 µM (active)
EC50 (Streptococcus): 21.5 µM (active)
IC50 (Beta-galactosidase): > 66.6 µM (inactive)

CCN1CCN(C(=O)c2cc(-c3ccc(Cl)cc3Cl)n[nH]2)CC1
IC50 [15]: > 100 µM (inactive)
IC50 [16]: > 100 µM (not active)
